The target in the experiment is T1, Tyrosine-protein kinase JAK3 (Homo sapiens, UniProt P52333).
T1 sequence (P52333 whole entry): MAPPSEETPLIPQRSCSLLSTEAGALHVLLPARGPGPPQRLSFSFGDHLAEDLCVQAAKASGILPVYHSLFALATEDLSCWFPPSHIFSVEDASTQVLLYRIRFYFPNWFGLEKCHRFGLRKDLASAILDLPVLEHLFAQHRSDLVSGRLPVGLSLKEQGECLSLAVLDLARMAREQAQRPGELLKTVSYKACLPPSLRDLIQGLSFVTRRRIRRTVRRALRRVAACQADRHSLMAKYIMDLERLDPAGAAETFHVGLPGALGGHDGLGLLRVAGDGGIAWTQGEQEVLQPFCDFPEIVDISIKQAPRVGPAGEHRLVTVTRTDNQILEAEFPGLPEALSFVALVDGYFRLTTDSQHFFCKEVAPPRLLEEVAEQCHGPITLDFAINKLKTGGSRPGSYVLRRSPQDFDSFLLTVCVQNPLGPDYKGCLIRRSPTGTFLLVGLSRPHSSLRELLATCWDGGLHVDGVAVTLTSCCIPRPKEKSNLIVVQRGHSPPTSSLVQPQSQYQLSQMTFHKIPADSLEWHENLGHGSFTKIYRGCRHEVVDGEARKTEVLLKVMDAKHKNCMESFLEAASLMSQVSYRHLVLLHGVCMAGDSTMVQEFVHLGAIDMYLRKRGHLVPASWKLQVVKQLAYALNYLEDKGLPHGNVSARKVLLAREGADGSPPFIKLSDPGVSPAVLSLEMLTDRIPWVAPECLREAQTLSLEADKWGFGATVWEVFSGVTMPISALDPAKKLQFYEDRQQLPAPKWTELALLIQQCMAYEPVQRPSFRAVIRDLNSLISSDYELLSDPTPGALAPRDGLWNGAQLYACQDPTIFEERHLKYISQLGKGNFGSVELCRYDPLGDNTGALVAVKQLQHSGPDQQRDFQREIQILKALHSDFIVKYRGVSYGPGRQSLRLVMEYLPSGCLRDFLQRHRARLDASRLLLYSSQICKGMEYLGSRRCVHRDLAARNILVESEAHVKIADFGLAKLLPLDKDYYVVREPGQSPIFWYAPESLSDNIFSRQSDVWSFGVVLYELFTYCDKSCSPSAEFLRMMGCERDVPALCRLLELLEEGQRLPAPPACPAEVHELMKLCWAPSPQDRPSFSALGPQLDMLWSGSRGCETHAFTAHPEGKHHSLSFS
Description: Inhibition of human recombinant GST-tagged JAK3 cytoplasmic domain (781 to 1124 residues) expressed in baculovirus expression system incubated for 1 hr by FRET-based Z'-Lyte assay.

One may read the IC50 as the midpoint of a concentration-inhibition curve. As to `O=CC1=CCC[C@@H](C(=O)O)[C@@]2(C1)Oc1ccc(O)cc1C2=O`, the IC50 came out at 34.8 µM. The value for `O=CC1=CCC[C@@H](C(=O)O)[C@]2(C1)Oc1ccc(O)cc1C2=O` was 7 µM.
